Data: patent US11846640B2, “Identification of anticoagulants in a sample” (DSM IP Assets B.V., priority 2013, dated 2023)

Experiments:
Format in all cases: biochemical, human
normal plasma pool (NPP) [1] = assay: PiCT Method 4 (inverted PiCT) clotting time on ACL TOP 500; conditions: for Clotting time: Table 10B, PiCT Method 4, NPP spiked, mean n = 4; for PiCT ® method 4 clotting time: Table 11
Procedure: The present invention is in one aspect directed to the use of a clotting assay, in particular the PiCT® testing method on a detection system such as e.g. the ACL TOP® 500 analyzer and to a method to quantitatively and qualitatively detect anticoagulants in a sample, e.g. blood or plasma. […] PiCT® Method 4 or PiCT® inverted includes that first the start reagent is added to the sample, the mixture allowed to proceed according to the manufacturer's instructions followed by addition of the activator, i.e. a reversed order compared to standard PiCT® (see above). PiCT® Method 1 to 4 is described in more detail in the Examples.
(§1) The 4 methods (see above) are in more detail described in the Examples. Specific pipetting schemes were designed using NPP spiked with incremental amounts of anticoagulants in order to achieve high reproducibility of the test system, which is required for drug identification including use in a POC system. With regards to the ACL TOP® 500 analyzer, PiCT® Method 1 to 4 has been established as follows: • PiCT® Method 1: 50 μl of plasma is incubated for 180 sec with 50 μl of reagent 1 and afterwards 50 μl of reagent 2 is added and the time to clot is recorded on the ACL TOP® 500 (i.e. pipetting scheme: P-50/A-50/I-180/50-S).
After calculation of the RR for the different kind of anticoagulants (see Example 1) samples of NPP spiked with incremental amounts of anticoagulants were used in the ACL TOP® 500, wherein 45 μl start reagent was incubated with 140 μl plasma for 60 sec. The time to clot was recorded after addition of 40 μl of activator (i.e. so-called inverted PiCT®).

normal plasma pool (NPP) [2] = assay: PiCT Method 1 (standard Pefakit PiCT) clotting time on ACL TOP 500; conditions: for Clotting time with PiCT ® Method 1: spiked plasma; for Clotting time: Table 7C, PiCT Method 1, NPP spiked, mean n = 4
From the text: As described by Korte et al. (supra) or in EP 1240528, Pefakit® PiCT® is a functional clotting assay based on the direct activation of the prothrombinase complex which results in a fine-tuned analytical output directly proportional to the final anticoagulant activity of the factor Xa or factor IIa inhibitors (see Calatzis, Haemostasis 2000, 30:172-174). To perform the Pefakit® PiCT® test (referred to herein as standard “PiCT® or PiCT® Method 1), a defined amount of PiCT® activator (=reagent 1) is added to a sample, such as, e.g., plasma. The mixture is allowed to proceed at 37° C. for a specific period of time. The Start reagent (=reagent 2) is then added to the mixture and the time required for clot formation is measured. The presence of anticoagulants in the samples dose-dependently prolongs the time to clot. Pefakit® PiCT® is adapted to laboratory instruments based on mechanical or optical detection systems, including but not limited to ACL TOP® family (Instrumentation Laboratory), preferably ACL TOP® 500, STA Compact® series (Stago) or the BCS® XP series (Siemens).
as §1, with “P-50/A-50/I-180/50-S). This method is in particularly useful for detection of UFH, LMWH or hirudin. • PiCT® Method 2: P-75/A-65/I-180/35-S on the ACL TOP® 500 or P-80/A-65/I-180/40-S on the STA Compact® or P-75/A-65/I-180/S-40 on the BCS® XP. This method is in particularly useful for fondaparinux. • PiCT® Method 3: P-90/A-70/I-180/40-S on the ACL TOP® 500 or STA Compact®, or P-70/A-60/I-180/45-S on the BCS® XP. This method is in particularly useful for dabigatran or argatroban. • PiCT® Method 4: P-140/S-45/I160/A-40 on the ACL TOP® 500 or STA Compact®, or P-125/S-45/I-150/A-40 on the BCS® XP. This method is in particularly useful for rivaroxaban or apixaban.” for “P-50/A-50/I-180/50-S).”
With the normal PiCT®, i.e. PiCT® Method 1, wherein 50 μl of plasma is mixed with the same amount of reagent 1 (PiCT® activator), incubated for 180 sec and mixed with the same amount of reagent 2 (PiCT® start reagent) in a ACL TOP® 500 analyzer, the presence of NOACs cannot be determined in a sample. This is true even at high levels of said drugs in the sample, i.e. in the range of 300 ng/ml. Thus, in order to determine which NOAC is present in the sample, a combination of PiCT® Method 1 and PiCT® method 4 has to be used (see above for detailed description). To confirm this, spiked plasma samples with different levels of NOACs were prepared and the clotting time measured using first PiCT® Method 1 followed by PiCT® Method 4. […] In case of dabigatran present in the sample, both PiCT® Method 1 (which had to be adapted, i.e. PiCT® Method 3) and 4 are out of range as indicated in bold.

plasma samples [3] = assay: PT (HemosIL PT recombiplastin) clotting time; conditions: Table 6, spiked plasma, mean
Procedure: (§2) In order to address the above question, i.e. to determine the nature of an anticoagulant in a sample, a combination of several methods has to be performed, including PiCT® Method 1, PiCT® Method 4, aPTT (HemosIL™ aPTT SP), PT (HemosIL™ PT recombiplastin), and sometimes even a modified PiCT® Method 1 wherein polybrene has been added. In order to simulate this, plasma samples spiked with different levels of anticoagulants were analyzed using the ACL TOP® 500 analyzer.

plasma samples [4] = assay: aPTT (HemosIL aPTT SP) clotting time; conditions: Table 6, spiked plasma, mean
Procedure: as §2, with “analyzer. For each drug, a specific pattern was obtained, i.e. clotting times within the RR and clotting times above the RR, depending on the used testing method, which is unique at least for the class of anticoagulant or even for a specific anticoagulant.” for “analyzer.”

plasma samples [5] = assay: PiCT Method 1 with polybrene added, clotting time; conditions: Table 6, spiked plasma, mean
From the text: By the addition of polybrene a distinction can be done, which of the anticoagulants is really present in the sample: if after addition of polybrene the measured clotting times are again back to RR when using the PiCT® Method 1, the sample comprises heparins, such as e.g. UFH or LMWH. Alternatively, if the result is not going back to RR, the sample comprises low concentrations of dabigatran or hirudin. […] The particular clotting times measured for the different anticoagulants are shown in Table 6, which is an example of results obtained in spiked plasma samples.
as §2, with “analyzer. For each drug, a specific pattern was obtained, i.e. clotting times within the RR and clotting times above the RR, depending on the used testing method, which is unique at least for the class of anticoagulant or even for a specific anticoagulant.” for “analyzer.”

Compound: COc1ccc(-n2nc(C(N)=O)c3c2C(=O)N(c2ccc(N4CCCCC4=O)cc2)CC3)cc1 [apixaban]
- Clotting time with PiCT ® Method 4 (normal plasma pool (NPP) [1]; Table 4, NPP spiked with 20 ng per ml): 45 s
- Clotting time with PiCT ® Method 4 (normal plasma pool (NPP) [1]; Table 4, NPP spiked with 35 ng per ml): 54 s
- Clotting time with PiCT ® Method 4 (normal plasma pool (NPP) [1]; Table 5, spiked plasma, 20 ng per ml): 45 s
- Clotting time with PiCT ® Method 4 (normal plasma pool (NPP) [1]; Table 5, spiked plasma, 35 ng per ml): 54 s
- Clotting time with PiCT ® Method 4 (normal plasma pool (NPP) [1]; Table 5, spiked plasma, 300 ng per ml): 124.3 s
- Clotting time with PiCT ® Method 4 (normal plasma pool (NPP) [1]; Table 6, spiked plasma, 50 ng, mean): 54.4 s
- Clotting time with PiCT ® Method 4 (normal plasma pool (NPP) [1]; Table 6, spiked plasma, 200 ng, mean): 151.0 s
- Clotting time (normal plasma pool (NPP) [1]; 5 ng/ml): 65 s
- Clotting time (normal plasma pool (NPP) [1]; 10 ng/ml): 74 s
- Clotting time (normal plasma pool (NPP) [1]; 50 ng/ml): 109 s
- Clotting time (normal plasma pool (NPP) [1]; 100 ng/ml): 136 s
- Clotting time (normal plasma pool (NPP) [1]; 200 ng/ml): 167 s
- Clotting time (normal plasma pool (NPP) [1]; 500 ng/ml): 233 s
- PiCT ® method 4 clotting time (normal plasma pool (NPP) [1]; spiked plasma, 20 ng/mL (wash off level)): 45 sec (n = 3)
- PiCT ® method 4 clotting time (normal plasma pool (NPP) [1]; spiked plasma, 35 ng/mL (wash off level)): 54 sec (n = 3)
- Clotting time with PiCT ® Method 1 (normal plasma pool (NPP) [2]; Table 5, 20 ng per ml (title: Method 3 for dabigatran)): 18 s
- Clotting time with PiCT ® Method 1 (normal plasma pool (NPP) [2]; Table 5, 35 ng per ml (title: Method 3 for dabigatran)): 18 s
- Clotting time with PiCT ® Method 1 (normal plasma pool (NPP) [2]; Table 5, 300 ng per ml (title: Method 3 for dabigatran)): 24.9 s
- Clotting time with PiCT ® Method 1 (normal plasma pool (NPP) [2]; Table 6, 50 ng, mean): 18.9 s
- Clotting time with PiCT ® Method 1 (normal plasma pool (NPP) [2]; Table 6, 200 ng, mean): 22.3 s
- Clotting time with PT (plasma samples [3]; 50 ng): 11.2 s
- Clotting time with aPTT (plasma samples [4]; 50 ng): 31.0 s
- Clotting time with aPTT (plasma samples [4]; 200 ng): 36.4 s

Compound: lepirudin [hirudin]
- Clotting time with PiCT ® Method 4 (normal plasma pool (NPP) [1]; Table 4, NPP spiked with 0.4 μg per ml): 300 s
- Clotting time with PiCT ® Method 4 (normal plasma pool (NPP) [1]; Table 6, spiked plasma, 0.4 μg, mean): 300.0 s
- Clotting time with PiCT ® Method 4 (normal plasma pool (NPP) [1]; Table 6, spiked plasma, 2.5 μg, mean): 300.0 s
- Clotting time with PiCT ® Method 1 (normal plasma pool (NPP) [2]; Table 6, 0.4 μg, mean): 88.9 s
- Clotting time with PiCT ® Method 1 (normal plasma pool (NPP) [2]; Table 6, 2.5 μg, mean): 264.5 s
- Clotting time (normal plasma pool (NPP) [2]; 0.2 μg/ml): 41 s
- Clotting time (normal plasma pool (NPP) [2]; 0.4 μg/ml): 55 s
- Clotting time (normal plasma pool (NPP) [2]; 0.6 μg/ml): 69 s
- Clotting time (normal plasma pool (NPP) [2]; 0.9 μg/ml): 86 s
- Clotting time (normal plasma pool (NPP) [2]; 1.3 μg/ml): 113 s
- Clotting time (normal plasma pool (NPP) [2]; 1.7 μg/ml): 142 s
- Clotting time (normal plasma pool (NPP) [2]; 2.0 μg/ml): 158 s
- Clotting time (normal plasma pool (NPP) [2]; 2.4 μg/ml): 183 s
- Clotting time (normal plasma pool (NPP) [2]; 2.8 μg/ml): 209 s
- Clotting time (normal plasma pool (NPP) [2]; 3.0 μg/ml): 219 s
- Clotting time with PT (plasma samples [3]; 0.4 μg): 11.8 s
- Clotting time with PT (plasma samples [3]; 2.5 μg): 14.6 s
- Clotting time with PiCT ® Method 1 + polybrene (plasma samples [5]; 0.4 μg): 89.5 s
- Clotting time with PiCT ® Method 1 + polybrene (plasma samples [5]; 2.5 μg): 258.0 s
- Clotting time with aPTT (plasma samples [4]; 0.4 μg): 60.6 s
- Clotting time with aPTT (plasma samples [4]; 2.5 μg): 108.8 s
